Data reported in PMC5008412, “A phase I study of indoximod in patients with advanced malignancies” (Oncotarget, 2016).

Columns and labels:
[1] = test system: Lewis lung cancer mouse xenografts; design: method as in PMID 15711557, PMID 16166276; conditions: transplanted Lewis lung cancer mouse xenografts; cited from earlier work
[2] = test system: circulating T cell populations; test: T-cell flow cytometry panel on patient blood; type: in vivo, human
From the text: At weeks 1, 3, 5, and 7 of treatment, patient blood was collected into 3 heparinized 10-mL Vacutainer tubes. Samples underwent Ficoll separation and cryopreservation for subsequent analyses. A total of 16 patients across dose levels 4-10 had satisfactory samples collected at all 4 time points for multiparameter flow analyses (see Table 1 for definition of dose levels). Flow cytometry analyses using a T-cell panel (CCR6-FITC, CD45RO-PerCP-Cy5, CD45RA-BV421, HLADR-BV650, CD4-PE, CD25-PECy7, CD127-Alexa 647, CD3- BUV395, Live/Dead Aqua, CD8-BUV737) to determine changes in circulating levels of T-regulatory cells (CD4+CD25+CD127low), naïve (CD45RA+) versus memory (CCR6+/−CD45RO+) CD4 and CD8 T cells, and activated T-cell subsets (HLA-DR+) were carried out in the Moffitt Flow Cytometry Core on an LSRII with compensation beads and fluorescence minus one controls. Gating was done using fluorescence minus one thresholds, and analyses were done using FloJo X software. Mean percentages of the populations were calculated from single, live, CD3+-gated events and analyzed across the 4 time points for the entire group, with lower (dose levels 4-8) versus higher (dose levels 9-10) dose levels compared using ANOVA in Prism GraphPad. P levels of 0.05 indicated significance.

[3] = test system: 30 different tumor-associated antigens; test: Autoantibody titers to tumor-associated antigens (Serametrix protein microarray); type: in vivo, human; conditions: week 5; of 40 patients evaluated; P < 0.05
Protocol: (§1) Plasma kynurenine and tryptophan levels were measured via high-performance liquid chromatography at baseline and during weeks 1-4 of treatment using previously published methods. Humoral responses toward multiple cancer-testis antigens were analyzed by a proprietary whole protein microarray (Serametrix, Carlsbad, CA) in a 200-μL plasma aliquot, collected at blood draws at baseline and at week 5. Autoantibody titers were reported as relative fluorescence units using human anti-IgG reporter antibodies with blank and predetermined IgG antibody titer control spots using a Perkin Elmer fluorescence scanner.

[4] = Plasma pharmacokinetics (LC-MS/MS, non-compartmental); type: in vivo, human
Protocol: A validated liquid chromatography triple-quadrupole with tandem mass spectrometry method was used to determine levels of indoximod in plasma. The methods were validated per International Conference on Harmonization/Food and Drug Administration guidelines. Plasma samples were prepared for chromatographic injections by protein precipitation as described in Supplement 1.
Plasma concentration-time data for indoximod were analyzed by non-compartmental pharmacokinetic methods using Phoenix WinNonlin 6.3 (Pharsight Corp., Mountain View, CA). Data in the terminal, log-linear phase were analyzed by linear regression to estimate terminal elimination rate constant and half-life. These additional pharmacokinetic parameters were also determined: AUC0-48, AUC0-inf, Cmax, Tmax, terminal half-life (t1/2), apparent clearance, and apparent volume of distribution.

advanced solid tumors = test: Response evaluation by RECIST 1.1; type: in vivo, human
Protocol: Overall response rate was determined via the criteria described by the RECIST 1.1 guidelines. Baseline evaluations were conducted within 14 days before start of therapy, with CT scans performed within 4 weeks before start of therapy. Patients were then reevaluated every 8 weeks with diagnostic CT scans. The best overall response achieved during study therapy was recorded for each patient. The response data presented herein underwent site radiology review. The duration of response was measured from the time criteria were met for complete or partial response until the first date that recurrent or progressive disease was documented.

[5] = design: method as in PMID 17234791; conditions: combined with cyclophosphamide; compared among forms of 1-methyl-tryptophan; cited from earlier work
IDO = test: Plasma kynurenine/tryptophan pharmacodynamics (HPLC); type: in vivo, human
Protocol: as §1

C-reactive protein = C-reactive protein levels; type: in vivo, human
From the text: Physical examinations, autoimmunity evaluations, complete blood counts, metabolic panels, and C-reactive protein levels were obtained at baseline and every 2 weeks. Pituitary function tests (thyroid-stimulating hormone, free T4, luteinizing hormone, follicular stimulating hormone, and adrenocortical hormone) and anti-nuclear autoantibody titers were obtained at baseline and every 4 weeks.

| SMILES | effect on tumor growth [1] | changes in T cell populations (Treg, naive/memory CD4 and CD8, activated subsets) ([2]; baseline through week 7, group as a whole) | dose-dependent changes in T cell populations ([2]; higher dose levels versus lower dose levels) | patients with significantly higher autoantibody titers than at baseline [3] | half-life ([4]; human, plasma, po) [h] | Cmax ([4]; human, plasma, 2000 mg twice/day oral) [µM] | dose range with linear dose response of AUC and Cmax ([4]; oral) | single doses with plateauing of peak serum levels ([4]; oral) [mg] | drug renally cleared ([4]; patients) [%] | oral bioavailability ([4]; patients) | time at which Cmax occurred ([4]; plasma, oral) [h] | anticipated therapeutic dose of 10 to 15 μM ([4]; serum drug level with current dosing schedules) | patients with stable disease >6 months (advanced solid tumors; of 48 patients) | single-agent antitumor activity (advanced solid tumors; patients with advanced solid tumors) | best response (advanced solid tumors; site radiologist assessment, RECIST 1.1) | in vivo antitumor activity [5] | effect on circulating kynurenine levels (IDO) | C reactive protein (CRP) levels (C-reactive protein; across multiple dose levels) | mean level of C-reactive protein (C-reactive protein; week 3 of treatment, baseline 3.81 mg/dL, P = 0.02) [mg/dL] |
| --- | --- | --- | --- | --- | --- | --- | --- | --- | --- | --- | --- | --- | --- | --- | --- | --- | --- | --- | --- |
| Cn1cc(CC(N)C(=O)O)c2ccccc21 (racemic) [1-methyl-DL-tryptophan] | delaying growth |  |  |  |  |  |  |  |  |  |  |  |  |  |  |  |  |  |  |
| Cn1cc(C[C@@H](N)C(=O)O)c2ccccc21 [indoximod, 1-methyl-D-tryptophan] |  | did not identify any statistically significant changes | no detectable dose-dependent changes | 12 | 10.5 | ~12 | up to 800 mg once daily | ≥ 1600 | 20 | good | 2.9 | reached | 5 | modest | stable disease | superior | lack of effect | increased | 5.13 |
